Structures can show the parent of a compound that is named as a salt.

What all share (assay type): in vivo, ddY-strain male mice
Experiment [1] deals with motor activity induced by atropine. Briefly: Antagonistic effect against atropine (automex method). To be noted: 600 mg/kg i.p. + atropine 30 mg/kg s.c. The method, then: In Tests 1 to 4 given below, ddY-strain male mice (body weight 20-25 g) were used, and the experiments were carried out in a semi-soundproof, constant-temperature room kept at a temperature of 23±1° C. and a humidity of 55±2%. The mice were allowed to take feed and water freely.
Test 4: Antagonistic effect against atropine (automex method)
Each of the test compounds was intraperitoneally administered to mice divided into 6-membered groups, and immediately then, atropine was subcutaneously injected into the mice in a dose of 30 mg/kg. The effect of each test compound on the enhancement of motor activity induced by atropine was examined in accordance with the automex method.

Experiment [2] relates to electric convulsive shock-induced amnesia model. Briefly: Effects on ECS-induced amnesia (step-down retention test). As to conditions: for Escape learning latency (mean ± S.E.) / Step-down latency (mean ± S.E.): ECS 300 V, retention test 24 hours. As for the experimental part:
The test animals used were ddY-strain male mice (body weight 30-35 g). The experiment was carried out indoors at about 20° C., and the mice were allowed to take feed and water freely. 2. Effects on memorized behaviors A device comprised of a floor grid surrounded on four sides by acrylic glass walls each having a lateral dimension of 21 cm and a wooden platform, 4×4×4 cm in size, fixed centrally to the floor grid was placed in a wooden semi-soundproof box having a size of 21×21×40 cm with a […] electric bulb suspended from its ceiling. The floor grid consisted of stainless steel rods, 3 mm in diameter, arranged at intervals of 8 mm. An intermittent electric shock (1 Hz, 0.5 sec., 60 V DC) was applied to the grid by an electric impulse apparatus and an isolator. A mouse was placed in a predetermined direction on the platform. Immediately after the mouse stepped down onto the floor grid (when the mouse's four limbs left the platform), an electric shock was applied to the floor grid, and the intermittent application of the electric shock was continued until the mouse climbed up the platform to escape from the electric shock. The time which elapsed until the mouse stepped down from the platform (SDL, step down latency) and the time which elapsed until the mouse escaped to the platform from the electric shock (ELL, escape learning latency) were measured. […] By the same procedure as in the training test, a mouse was placed on the platform, and its step down latency (SDL) was measured. The cut-off time was 300 seconds. After the mouse stepped down, or the cut-off time elapsed, the mouse was placed on the floor grid at a corner of the device with its head directed in a direction opposite to the platform. An electric shock was applied to the mouse and its escape learning latency (ELL) was measured. Mice divided into groups each consisting of not less than 15 mice were subjected to the training test, and immediately then, ECS (300 V DC, 0.5 sec.) was applied to the mice through both ears. Twenty-four hours later, the mice were subjected to the retention test. Immediately after administration of CXM or application of ECS, a 0.9% normal saline solution of each of the test compounds was intraperitoneally administered to the mice. Separately, a 5% gum arabic solution of CXM was administered to the mice in a control group. […] But the mice recovered 1 to 2 minutes later.

Experiment [3] has as its system cycloheximide-induced amnesia model. Briefly: Effects on CXM-induced amnesia (step-down retention test). As to conditions: for Escape learning latency (mean ± S.E.) / Step-down latency (mean ± S.E.): retention test 24 hours. The method, then: The test animals used were ddY-strain male mice (body weight 30-35 g). The experiment was carried out indoors at about 20° C., and the mice were allowed to take feed and water freely. 2. Effects on memorized behaviors
A device comprised of a floor grid surrounded on four sides by acrylic glass walls each having a lateral dimension of 21 cm and a wooden platform, 4×4×4 cm in size, fixed centrally to the floor grid was placed in a wooden semi-soundproof box having a size of 21×21×40 cm with a 15W electric bulb suspended from its ceiling.
The floor grid consisted of stainless steel rods, 3 mm in diameter, arranged at intervals of 8 mm. An intermittent electric shock (1 Hz, 0.5 sec., 60 V DC) was applied to the grid by an electric impulse apparatus and an isolator.
A mouse was placed in a predetermined direction on the platform. Immediately after the mouse stepped down onto the floor grid (when the mouse's four limbs left the platform), an electric shock was applied to the floor grid, and the intermittent application of the electric shock was continued until the mouse climbed up the platform to escape from the electric shock. The time which elapsed until the mouse stepped down from the platform (SDL, step down latency) and the time which elapsed until the mouse escaped to the platform from the electric shock (ELL, escape learning latency) were measured.
By the same procedure as in the training test, a mouse was placed on the platform, and its step down latency (SDL) was measured. The cut-off time was 300 seconds.
After the mouse stepped down, or the cut-off time elapsed, the mouse was placed on the floor grid at a corner of the device with its head directed in a direction opposite to the platform. An electric shock was applied to the mouse and its escape learning latency (ELL) was measured.
Mice divided into groups each consisting of not less than 20 mice were subjected to the training test, and immediately then subcutaneously injected with CXM (150 mg/kg). Twenty-four hours later, the mice was subjected to the retention test.
Immediately after administration of CXM or application of ECS, a 0.9% normal saline solution of each of the test compounds was intraperitoneally administered to the mice. Separately, a 5% gum arabic solution of CXM was administered to the mice in a control group.

The mark [4] stands for this setting: 500 mg/kg i.p., CXM 150 mg/kg s.c.
Where [5] appears, read: 1000 mg/kg i.p., CXM 150 mg/kg s.c.

As to `CC(O)(CCO)CC(=O)NCCCC(=O)O` (centres unmarked) [MV-GABA-Ca salt, calcium 4-(3,5-dihydroxy-3-methylpentylamide) butyrate], the “Motor activity (total number of counts)” value in experiment [1] (5 minutes) was determined as 8 counts; in experiment [1] (10 minutes), 12 counts; in experiment [1] (15 minutes), 19 counts; in experiment [1] (20 minutes) it was 27 counts; in experiment [1] (25 minutes), 47 counts; in experiment [1] (30 minutes), 92 counts. Besides, the “Escape learning latency (mean ± S.E.)” value in experiment [2] (250 mg/kg i.p.) is 12.8 ± 1.6 s; in experiment [2] (500 mg/kg i.p.), 8.0 ± 1.1 s; in experiment [2] (750 mg/kg i.p.), 6.7 ± 0.7 s; in experiment [3] (setting [4]) it was 10.5 ± 0.6 s; in experiment [3] (setting [5]), 7.5 ± 0.6 s; in experiment [3] (1000 mg/kg i.p., without CXM), 5.2 ± 0.6 s. Moreover, the “Step-down latency (mean ± S.E.)” value amounted to 104.6 ± 17.7 s in experiment [2] (250 mg/kg i.p.); 158.5 ± 21.7 s in experiment [2] (500 mg/kg i.p.); 215.2 ± 15.9 s in experiment [2] (750 mg/kg i.p.); 120.5 ± 10.6 s in experiment [3] (setting [4]); 175.2 ± 16.1 s in experiment [3] (setting [5]); 260.5 ± 14.0 s in experiment [3] (1000 mg/kg i.p., without CXM). Besides, the “prolongation of ELL (ECS)” value in experiment [2] (500 mg/kg, result in words) is “significantly improved the prolongation of ELL”. Also, the “shortening of SDL and prolongation of ELL (ECS)” value in experiment [2] (750 mg/kg, result in words) was “significantly improved shortening of SDL and also the prolongation of ELL”. Also, in experiment [3] (500 mg/kg and 1,000 mg/kg, result in words), the “shortening of SDL induced by CXM” value is on record as “significantly improved the shortening of SDL”. Moreover, the “prolongation of ELL induced by CXM” value in experiment [3] (1,000 mg/kg, result in words) is given as “significantly improved the prolongation of ELL”. In experiment [3] (without CXM, vs control group, result in words), the memory activating action result is recorded as “did not show memory activating action”.

These data come from patent US4703061A, “Gamma-aminobutyric acid derivatives, process for production thereof, and use thereof as medicaments” (priority 1984, dated 1987).
